Measurements as given in patent US20230106719A1, “DISSOLVING AGENT” (NATIONAL UNIVERSITY CORPORATION HOKKAIDO UNIVERSITY, priority 2020, published 2023).
Converted amounts (≈) assume the structure as drawn.

Assay: Drug solubility in coconut oil, CAOM and related dissolving agents
Type: physicochemical

solubility of curcumin in CAOM relative to coconut oil (in CAOM versus coconut oil): 6 times | solubility at 2 days (oil or lipid, thermodynamic from solid, in coconut oil, room temperature, mean±SD n=3, read-out: solubility of curcumin in coconut oil): 2440 ± 240 µg/mL (≈ 6.62 mM)
SMILES: COc1cc(/C=C/C(=O)CC(=O)/C=C/c2ccc(O)c(OC)c2)ccc1O [curcumin]
